# According to ChEMBL document CHEMBL2429737, “Synthesis and study of benzothiazole conjugates in the control of cell proliferation by modulating Ras/MEK/ERK-dependent pathway in MCF-7 cells” (Bioorg Med Chem Lett, 2013):
# The source made the active and inactive calls. No cut-off for these calls is given here.
# Tests used:
# [1] = test system: MCF-10A; experiment: Cytotoxicity against human MCF10A cells after 72 hrs by MTT assay; type: cell-based
# [2] = Cytotoxicity against HEK cells at 0.25 to 64 ug after 72 hrs by MTT assay; type: cell-based; settings: human, hek293, 72 h
# [3] = test system: MCF-10A; experiment: Selectivity index, ratio of IC50 for human MCF10A cells to IC50 for human MDA-MB-231 cells; type: functional
# [4] = test system: MDA-MB-231; experiment: Cytotoxicity against human MDA-MB-231 cells after 48 hrs by SRB assay; type: functional; settings: MDA-MB-231, 48 h
# [5] = test system: MCF7; experiment: Cytotoxicity against human MCF7 cells after 72 hrs by MTT assay; type: functional, cell-based; settings: MCF7, 72 h
# [6] = test system: MCF7; experiment: Cytotoxicity against human MCF7 cells after 48 hrs by SRB assay; type: functional; settings: MCF7, 48 h
# [7] = test system: MDA-MB-231; experiment: Cytotoxicity against human MDA-MB-231 cells after 72 hrs by MTT assay; type: functional, cell-based; settings: MDA-MB-231, 72 h
# [8] = test system: MCF7; experiment: Selectivity index, ratio of IC50 for human MCF10A cells to IC50 for human MCF7 cells; type: functional
# [9] = test system: MCF7; experiment: Cytotoxicity against human MCF7 cells at 4 uM after 72 hrs by MTT assay; type: functional
# [10] = test system: MCF7; experiment: Down regulation of MEK1 protein expression in human MCF7 cells at 2 to 4 uM after 24 hrs by Western blotting analysis; type: functional, cell-based
# [11] = molecular target: Mitogen-activated protein kinase; ERK1/ERK2 (Homo sapiens) (UniProt P27361+P28482); experiment: Inhibition of ERK1/2 phosphorylation in human MCF7 cells at 2 to 4 uM after 24 hrs by Western blotting analysis; type: cell-based
# [12] = test system: MCF7; experiment: Down regulation of Ras protein expression in human MCF7 cells at 2 to 4 uM after 24 hrs by Western blotting analysis; type: functional, cell-based
# [13] = test system: MCF7; experiment: Down regulation of VEGF protein expression in human MCF7 cells at 2 to 4 uM after 24 hrs by Western blotting analysis; type: functional, cell-based
# [14] = test system: MCF7; experiment: Down regulation of integrin alphaVbeta3 protein expression in human MCF7 cells at 2 to 4 uM after 24 hrs by Western blotting analysis
# [15] = test system: MCF7; experiment: Induction of apoptosis in human MCF7 cells assessed as increase in caspase-9 activity at 2 uM after 24 hrs by fluorescence assay
# Mitogen-activated protein kinase; ERK1/ERK2 (Homo sapiens), sequence (P27361 whole entry, looked up): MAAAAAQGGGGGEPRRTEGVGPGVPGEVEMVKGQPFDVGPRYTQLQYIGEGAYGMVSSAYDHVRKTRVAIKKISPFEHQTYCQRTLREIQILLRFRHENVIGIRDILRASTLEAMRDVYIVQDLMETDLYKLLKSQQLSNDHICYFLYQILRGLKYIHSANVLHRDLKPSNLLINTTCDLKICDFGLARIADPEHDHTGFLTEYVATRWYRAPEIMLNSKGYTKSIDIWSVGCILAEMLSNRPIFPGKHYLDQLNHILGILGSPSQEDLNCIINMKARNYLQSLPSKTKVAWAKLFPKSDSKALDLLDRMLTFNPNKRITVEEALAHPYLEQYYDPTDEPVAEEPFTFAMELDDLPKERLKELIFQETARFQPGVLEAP
# Mitogen-activated protein kinase; ERK1/ERK2 (Homo sapiens), sequence (P28482 whole entry, looked up): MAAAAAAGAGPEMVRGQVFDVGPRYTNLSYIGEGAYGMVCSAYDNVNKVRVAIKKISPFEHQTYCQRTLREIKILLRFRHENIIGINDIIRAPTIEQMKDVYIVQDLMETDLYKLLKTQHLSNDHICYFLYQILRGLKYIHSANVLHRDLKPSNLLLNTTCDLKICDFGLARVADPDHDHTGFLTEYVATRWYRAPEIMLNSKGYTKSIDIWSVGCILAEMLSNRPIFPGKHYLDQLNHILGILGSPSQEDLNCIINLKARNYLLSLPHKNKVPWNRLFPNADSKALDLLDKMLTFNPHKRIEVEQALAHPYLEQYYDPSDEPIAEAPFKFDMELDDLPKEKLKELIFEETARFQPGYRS
compound,measurement,setting,value
COc1ccc(-c2ccc(C)n2-c2ccc(-c3nc4ccc(F)cc4s3)cc2)cc1,IC50,[1],37.8 µM
same,Activity,[2],Non-toxic
same,Ratio IC50,[3],1.98
same,GI50,[4],3.07 µM
same,IC50,[5],2.54 µM
same,GI50,[6],2.12 µM
same,IC50,[7],19 µM
same,Ratio IC50,[8],14.85
COc1ccc2nc(-c3ccc(-n4c(C)ccc4-c4ccc(F)cc4)cc3)sc2c1,IC50,[1],38.3 µM
same,Activity,[2],Non-toxic
same,Ratio IC50,[3],2.77
same,GI50,[4],4.06 µM
same,IC50,[5],2.8 µM
same,GI50,[6],2.48 µM
same,IC50,[7],13.8 µM
same,Ratio IC50,[8],13.67
COc1cc(-c2ccc(C)n2-c2ccc(-c3nc4ccccc4s3)cc2)cc(OC)c1OC,IC50,[1],38.8 µM
same,Activity,[2],Non-toxic
same,Ratio IC50,[3],2.42
same,GI50,[4],3.45 µM
same,IC50,[5],4.37 µM
same,GI50,[6],2.34 µM
same,IC50,[7],16 µM
same,Ratio IC50,[8],8.87
COc1ccc(-c2ccc(C)n2-c2ccc(-c3nc4cc(OC)c(OC)c(OC)c4s3)cc2)cc1,IC50,[1],43.9 µM
same,Activity,[2],Non-toxic
same,Ratio IC50,[3],3.5
same,GI50,[4],2.24 µM
same,IC50,[5],2.2 µM
same,Activity,[9],50%
same,GI50,[6],1.23 µM
same,IC50,[7],12.5 µM
same,Ratio IC50,[8],19.945
Cc1ccc(-c2ccc(C)n2-c2ccc(-c3nc4ccccc4s3)cc2)cc1,IC50,[1],30.6 µM
same,Activity,[2],Non-toxic
same,Ratio IC50,[3],1.71
same,GI50,[4],4.4 µM
same,IC50,[5],3.1 µM
same,GI50,[6],2.5 µM
same,IC50,[7],17.8 µM
same,Ratio IC50,[8],9.1
COc1ccc(-c2ccc(C)n2-c2ccc(-c3nc4ccccc4s3)cc2)cc1,IC50,[1],36.3 µM
same,Activity,[2],Non-toxic
same,Ratio IC50,[3],2.44
same,GI50,[4],3.99 µM
same,IC50,[5],3.25 µM
same,GI50,[6],2.78 µM
same,IC50,[7],14.8 µM
same,Ratio IC50,[8],11.13
Cc1ccc(-c2ccc([N+](=O)[O-])cc2)n1-c1ccc(-c2nc3ccccc3s2)cc1,IC50,[1],38.8 µM
same,Activity,[2],Non-toxic
same,Ratio IC50,[3],3.2
same,GI50,[4],3.9 µM
same,IC50,[5],3.11 µM
same,GI50,[6],2.54 µM
same,IC50,[7],12.1 µM
same,Ratio IC50,[8],12.47
COc1ccc2nc(-c3ccc(-n4c(C)ccc4-c4ccc(C)cc4)cc3)sc2c1,IC50,[1],34 µM
same,Activity,[2],Non-toxic
same,Ratio IC50,[3],1.65
same,GI50,[4],4.01 µM
same,IC50,[5],2.85 µM
same,GI50,[6],2.57 µM
same,IC50,[7],20.5 µM
same,Ratio IC50,[8],11.92
Cc1ccc(-c2ccc(F)cc2)n1-c1ccc(-c2nc3ccccc3s2)cc1,IC50,[1],40 µM
same,Activity,[2],Non-toxic
same,Ratio IC50,[3],3.4
same,GI50,[4],4.34 µM
same,IC50,[5],3.18 µM
same,GI50,[6],2.62 µM
same,IC50,[7],11.8 µM
same,Ratio IC50,[8],12.57
COc1cc2nc(-c3ccc(-n4c(C)ccc4-c4ccc(C)cc4)cc3)sc2c(OC)c1OC,IC50,[1],42.5 µM
same,Activity,[2],Non-toxic
same,Ratio IC50,[3],3.45
same,GI50,[4],4.14 µM
same,IC50,[5],3.11 µM
same,GI50,[6],2.91 µM
same,IC50,[7],12.3 µM
same,Ratio IC50,[8],13.66
Cc1ccc(-c2ccc(C)n2-c2ccc(-c3nc4ccc(F)cc4s3)cc2)cc1,IC50,[1],33.6 µM
same,Activity,[2],Non-toxic
same,Ratio IC50,[3],2.01
same,GI50,[4],3.14 µM
same,IC50,[5],2.97 µM
same,GI50,[6],2.15 µM
same,IC50,[7],16.7 µM
same,Ratio IC50,[8],11.3
COc1cc2nc(-c3ccc(-n4c(C)ccc4-c4ccc(F)cc4)cc3)sc2c(OC)c1OC,IC50,[1],43.2 µM
same,Activity,[2],Non-toxic
same,Ratio IC50,[3],3.29
same,GI50,[4],3.94 µM
same,IC50,[5],2.91 µM
same,GI50,[6],2.67 µM
same,IC50,[7],13.1 µM
same,Ratio IC50,[8],14.83
COc1cc([C@@H]2c3cc4c(cc3[C@@H](O[C@@H]3O[C@@H]5CO[C@@H](C)O[C@H]5[C@H](O)[C@H]3O)[C@H]3COC(=O)[C@H]23)OCO4)cc(OC)c1O [ETOPOSIDE],IC50,[1],36.3 µM
same,Activity,[10],Active
same,inhibition,[11],Active
same,Activity,[12],Active
same,Ratio IC50,[3],24.17
same,GI50,[4],1.67 µM
same,IC50,[5],1.2 µM
same,Activity,[13],Active
same,Activity,[14],Active
same,Activity,[15],Active
same,GI50,[6],0.87 µM
same,IC50,[7],1.5 µM
same,Ratio IC50,[8],30.21
COc1ccc2nc(-c3ccc(-n4c(C)ccc4-c4ccc([N+](=O)[O-])cc4)cc3)sc2c1,IC50,[1],34.9 µM
same,Activity,[2],Non-toxic
same,Ratio IC50,[3],2.74
same,GI50,[4],4.56 µM
same,GI50,[6],3.17 µM
same,IC50,[7],12.7 µM
same,Ratio IC50,[8],25.3
COc1ccc(-c2ccc(C)n2-c2ccc(-c3nc4ccc(OC)cc4s3)cc2)cc1,IC50,[1],30.6 µM
same,Activity,[2],Non-toxic
same,Ratio IC50,[3],2.23
same,GI50,[4],4.12 µM
same,IC50,[5],4.83 µM
same,GI50,[6],3.09 µM
same,IC50,[7],12.7 µM
same,Ratio IC50,[8],6.36
COc1cc(-c2ccc(C)n2-c2ccc(-c3nc4ccc(F)cc4s3)cc2)cc(OC)c1OC,IC50,[1],40 µM
same,Activity,[2],Non-toxic
same,Ratio IC50,[3],2.6
same,GI50,[4],3 µM
same,IC50,[5],2.36 µM
same,GI50,[6],1.41 µM
same,IC50,[7],15.4 µM
same,Ratio IC50,[8],16.93
COc1ccc2nc(-c3ccc(-n4c(C)ccc4-c4cc(OC)c(OC)c(OC)c4)cc3)sc2c1,IC50,[1],37.8 µM
same,Activity,[10],Active
same,Activity,[2],Non-toxic
same,inhibition,[11],Active
same,Activity,[12],Active
same,Ratio IC50,[3],2.92
same,GI50,[4],1.76 µM
same,IC50,[5],1.52 µM
same,Activity,[13],Active
same,Activity,[14],Active
same,Activity,[15],Active
same,Activity,[9],50%
same,GI50,[6],0.92 µM
same,IC50,[7],12.9 µM
same,Ratio IC50,[8],24.84
Cc1ccc(-c2ccc(F)cc2)n1-c1ccc(-c2nc3ccc(F)cc3s2)cc1,IC50,[1],37.8 µM
same,Activity,[2],Non-toxic
same,Ratio IC50,[3],2.68
same,GI50,[4],3.03 µM
same,IC50,[5],2.8 µM
same,GI50,[6],1.79 µM
same,IC50,[7],14.1 µM
same,Ratio IC50,[8],13.48
Cc1ccc(-c2ccc([N+](=O)[O-])cc2)n1-c1ccc(-c2nc3ccc(F)cc3s2)cc1,IC50,[1],39 µM
same,Activity,[2],Non-toxic
same,Ratio IC50,[3],2.29
same,GI50,[4],1.67 µM
same,IC50,[5],2.37 µM
same,GI50,[6],0.918 µM
same,IC50,[7],17 µM
same,Ratio IC50,[8],16.4
